Reference: US20200368247A1, “CENICRIVIROC FOR THE TREATMENT OF FIBROSIS” (Tobira Therapeutics, Inc., priority 2014, published 2020)
Values joined by “and” are separate entries in the source; they are usually repeats but may differ in a detail not shown here. Equal values may be shown once.

Legend:
[1] = system: male CD-1 mice with unilateral ureter occlusion; test: Mouse UUO model of renal fibrosis; format: in vivo
Method: Test animals were allocated to weight-matched treatment groups on the day prior to the surgical procedure (Day −1). Male CD-1 mice (N=51; age, 7-8 weeks) underwent either sham surgery or total ligation of the right ureter, i.e. UUO, via aseptic laparotomy (FIG. 12). […] Another group received the anti-transforming growth factor TGF-β1 antibody, compound 1D11 (positive control) at 3 mg/kg/day from Days −1 to 4, injected intraperitoneally once daily, and vehicle control from Days 0 to 5. […] On Day 5, animals were anaesthetised, blood and tissues were collected prior to sacrifice.
Study endpoints included: a) body and kidney weights; b) fibrosis in obstructed kidney evaluated via histological quantitative image analysis of picrosirius red staining (ten images/depth/kidney obtained and assessed in a blinded fashion using light microscopy [at 200×] to enable sampling of 60-70% of the renal cortical area) and quantified by a composite Collagen Volume Fraction (CVF [% total area imaged]) score expressed as the average positive stain across three anatomically distinct ([…] apart) tissue sections, or depths, from the obstructed kidney; c) hydroxyproline content of frozen renal cortical tissue biopsies as assessed by biochemical analyses; d) mRNA expression of profibrotic and inflammatory biomarkers (including MCP-1, Collagen 1a1, Collagen 3a1, TGF-β1, Fibronectin-1, α-smooth muscle actin (α-SMA) and connective tissue growth factor-1 (CTGF-1); assessed via Luminex® (Life Technologies™, Carlsbad, Calif., USA) assay with relative expression normalised to HPRT (hypoxanthine phosphoribosyltransferase).
Data are expressed as mean±standard error of mean (SEM). Statistical analyses were performed using GraphPad Prism® (GraphPad Software, Inc., San Diego, Calif., USA). Treatment differences between sham-surgery+vehiclecontrol and UUO+vehicle-control groups, and between UUO+vehicle-control and UUO+compound-1D11 (positive control) groups, were analysed by unpaired t-Test. Treatment differences between UUO+vehicle-control and CVC-dose groups were analysed by one-way ANOVA (analysis of variance) with Dunnett's test (post-hoc).

[2] = system: male Sprague-Dawley rats with TAA-induced fibrosis; test: Rat model of thioacetamide-induced liver fibrosis and cirrhosis; format: in vivo; conditions: 8 weeks
Method: Fibrosis was induced in male Sprague-Dawley rats by intraperitoneal administration of TAA 150 mg/kg 3 times/week for 8 weeks. […] Biochemical, gene expression and histologic evaluations of the liver were conducted.

[3] = system: HIV-1; test: Study 201 PK/PD Emax model; format: in vivo, human
Excerpt: Drug response was characterized using the following maximum effect (Emax) model:
where E is effect, E0 is the baseline effect (fixed to 0), Imax is the maximum inhibition, C denotes the PK variable (AUC0-24, Cmax, or steady-state concentration [Css]), IC50 is the value of the PK variable which corresponds to 50% of the maximum inhibition and y is the shape parameter which describes the degree of sigmoidicity.

[4] = system: HIV-1; test: Study 201 drug resistance testing; format: in vivo, human; conditions: Baseline, Day 7, Day 40; subjects with evaluable samples
Method: In Study 201, drug resistance testing was performed at Baseline, Day 7, and Day 40 (or at the “Early Termination” visit, if applicable).

[5] = system: NASH mice; test: STAM mouse model of NASH, anti-HCC effects, week 18; conditions: for Body weight / Maximum diameter of visible tumor nodules (mm) / mice with GS-positive nodules / mice with HCC lesions (HE staining): week 18; for mice that died (survival analysis): 6 to 18 weeks
Method: Group 1-Vehicle: Eighteen NASH mice were orally administered vehicle at a volume of 10 mL/kg twice daily (9:00 and 19:00) from 6 weeks of age.

[6] = biological target: CCR5 (Homo sapiens, UniProt P51681); test: CCR5 receptor occupancy / RANTES-induced CCR5 internalization in PBMCs, flow cytometry; format: cell-based; conditions: PBMCs
Method: The capacity of each drug to inhibit CCR5 or CCR2 internalization was evaluated. Cell-surface expression of CCR5 and CCR2 was assessed by flow cytometry, and fluorescence values were converted into molecules of equivalent soluble fluorescence (MESF).

[7] = system: NASH mice; test: STAM mouse model of Non-alcoholic Steatohepatitis, anti-NASH/fibrosis effects, week 9; format: in vivo
Method: NASH was induced in male mice by a single injection of […] streptozotocin 2 days after birth (causing impaired glucose control), followed by a high fat diet from 4 weeks of age. […] Animals were sacrificed at 9 weeks of age, and biochemical, gene expression, and histologic evaluations of the liver were conducted.
This in vivo efficacy study was performed to examine the effects of Cenicriviroc in the STAM™ mouse model of Non-alcoholic Steatohepatitis.

[8] = Chronic (3- and 9-month) monkey toxicity studies; format: in vivo; conditions: 1000 mg/kg/day, 3- and 9-month monkey studies
[9] = CVC 7 and 20 mg/kg/day, compound 1D11
[10] = CVC-high 100 mg/kg/day, listed as Cenicriviroc
[11] = CVC-low 20 mg/kg/day, listed as Cenicriviroc
[12] = CVC-high 100 mg/kg/day, week 9, listed as Cenicriviroc
[13] = CVC-low 20 mg/kg/day, week 9, listed as Cenicriviroc

CCR5, sequence (P51681 whole entry): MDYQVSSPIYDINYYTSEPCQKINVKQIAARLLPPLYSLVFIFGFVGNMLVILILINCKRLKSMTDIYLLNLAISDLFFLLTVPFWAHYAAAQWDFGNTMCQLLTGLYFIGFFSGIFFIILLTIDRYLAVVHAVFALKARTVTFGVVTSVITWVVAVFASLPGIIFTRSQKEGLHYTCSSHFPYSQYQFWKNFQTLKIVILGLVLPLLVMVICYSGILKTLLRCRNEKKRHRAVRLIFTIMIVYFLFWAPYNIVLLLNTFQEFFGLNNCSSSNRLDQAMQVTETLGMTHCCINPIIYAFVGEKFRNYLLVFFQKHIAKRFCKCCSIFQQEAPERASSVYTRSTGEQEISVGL

With `CCCCOCCOc1ccc(-c2ccc3c(c2)/C=C(/C(=O)Nc2ccc([S@@+]([O-])Cc4cncn4CCC)cc2)CCCN3CC(C)C)cc1` [CVC, (S)-8-[4-(2-Butoxyethoxy)phenyl]-1-isobutyl-N-(4-{[(1-propyl-1H-imidazol-5-yl)methyl]sulfinyl}phenyl)-1,2,3,4-tetrahydro-1-benzazocine-5-carboxamide] the “effect on body weight” value ([1]; CVC 7 mg/kg/day, compound 1D11 3 mg/kg/day, Day 5) was “no effect on body weight”, the “tolerability in UUO mice” value ([1]; CVC 100 mg/kg/day) was “terminated early due to moribundity” and the “effect on obstructed kidney hydroxyproline content” value ([1]; CVC 7 and 20 mg/kg/day) was “Neither dose of CVC tested affected UUO-induced increases”. For the same compound, the “Collagen 1a1, Collagen 3a1, TGF-β1 and Fibronectin-1 mRNA expression vs UUO+vehicle-control” value [1, 9] was “did not reach statistical significance”, the “MCP-1, α-SMA and CTGF-1 mRNA expression vs UUO+vehicle-control” value [1, 9] was “did not have significant effects” and the “reduction of fibrosis by collagen morphometry” value ([2]; Group 1a, 30 mg/kg/day concurrently with TAA) was 49%. For the same compound, the “reduction of fibrosis by collagen morphometry” value ([2]; Group 1b, 100 mg/kg/day concurrently with TAA) was 38%, the “percent of the maximum inhibitory effect at average Css” value ([3]; 25 mg) was 54.9% and the “percent of the maximum inhibitory effect at average Css” value ([3]; 50 mg) was 79.8%. For the same compound, the “percent of the maximum inhibitory effect at average Css” value ([3]; 75 mg) was 85.9%, the “percent of the maximum inhibitory effect at average Css” value ([3]; 150 mg) was 95.9% and the “Emax in the PK/PD model (HIV-1 RNA)” value ([3]; Emax model) was −1.43 log10 copies/mL. The “drug susceptibility of virus” value [4] was “fully susceptible”, the “Body weight” value ([5]; CVC-high 100 mg/kg/day) was 20.8 ± 2.7 g and the “Maximum diameter of visible tumor nodules (mm)” value (“Maximum diameter” below) ([5]; CVC-high 100 mg/kg/day) was 5.3±5.1 mm. For the same compound, the “Body weight” value [5, 10] was 20.8 ± 2.7 g, the “Maximum diameter” value [5, 10] was 5.3 ± 5.1 mm and the “mice that died (survival analysis)” value ([5]; CVC-high) was “Five out of twelve”. For the same compound, the “mice with GS-positive nodules” value ([5]; CVC-high) was “seven out of seven”, the “mice with HCC lesions (HE staining)” value ([5]; CVC-high) was “six out of seven” and the “Body weight” value ([5]; CVC-low 20 mg/kg/day) was 22.9 ± 3.5 g. The “Maximum diameter” value ([5]; CVC-low 20 mg/kg/day) was 4.8±5.4 mm, the “Body weight” value [5, 11] was 22.9 ± 3.5 g and the “Maximum diameter” value [5, 11] was 4.8 ± 5.4 mm. The “mice that died (survival analysis)” value ([5]; CVC-low) was “Six out of twelve”, the “mice with GS-positive nodules” value ([5]; CVC-low) was “five out of six” and the “mice with HCC lesions (HE staining)” value ([5]; CVC-low) was “five out of six”. For the same compound, the “prevention of RANTES-induced CCR5 internalization” value [6] was “at lower effective concentrations than MVC”, the “decrease of collagen type 1 mRNA in whole liver lysates” value ([7]; 20 and 100 mg/kg/day, week 9) was 27-37% and the “Body weight” value ([7]; CVC-high 100 mg/kg/day, week 9) was 18.7 ± 0.9 g. The “Modified Sirius red-positive area (perivascular space subtracted)” value (“Modified Sirius red-positive area” for short) ([7]; CVC-high 100 mg/kg/day, week 9) was 0.20% and 0.20±0.06%, the “Plasma MCP-1” value ([7]; CVC-high 100 mg/kg/day, week 9) was 91 ± 14 pg/mL and the “Body weight” value [7, 12] was 18.7 ± 0.9 g. The “Modified Sirius red-positive area” value [7, 12] was 0.20 ± 0.06%, the “Plasma MCP-1” value [7, 12] was 91 ± 14 pg/mL and the “Hepatocyte ballooning score 0, number of mice” value ([7]; CVC-high, week 9, n = 6) was 1. For the same compound, the “Hepatocyte ballooning score 1, number of mice” value ([7]; CVC-high, week 9, n = 6) was 2, the “Hepatocyte ballooning score 2, number of mice” value ([7]; CVC-high, week 9, n = 6) was 3 and the “Lobular inflammation score 1, number of mice” value ([7]; CVC-high, week 9, n = 6) was 3. The “Lobular inflammation score 2, number of mice” value ([7]; CVC-high, week 9, n = 6) was 3, the “Steatosis score 0, number of mice” value ([7]; CVC-high, week 9, n = 6) was 1 and the “Steatosis score 1, number of mice” value ([7]; CVC-high, week 9, n = 6) was 5. The “Body weight” value ([7]; CVC-low 20 mg/kg/day, week 9) was 19.5 ± 2.0 g, the “Liver hydroxyproline (μg/mg total protein)” value (“Liver hydroxyproline” for short) ([7]; CVC-low 20 mg/kg/day, week 9) was 0.63±0.05 μg/mg total protein and the “Modified Sirius red-positive area” value ([7]; CVC-low 20 mg/kg/day, week 9) was 0.29% and 0.29±0.14%. For the same compound, the “Plasma ALT (U/L)” value ([7]; CVC-low 20 mg/kg/day, week 9) was 58±12 U/L, the “Plasma MCP-1” value ([7]; CVC-low 20 mg/kg/day, week 9) was 68 ± 16 pg/mL and the “Plasma MIP-1β” value ([7]; CVC-low 20 mg/kg/day, week 9) was 18 ± 2 pg/mL. For the same compound, the “Body weight” value [7, 13] was 19.5 ± 2.0 g, the “Liver hydroxyproline” value [7, 13] was 0.63 ± 0.05 μg/mg total protein and the “Modified Sirius red-positive area” value [7, 13] was 0.29 ± 0.14%. For the same compound, the “Plasma ALT (U/L)” value [7, 13] was 58 ± 12 U/L, the “Plasma MCP-1” value [7, 13] was 68 ± 16 pg/mL and the “Plasma MIP-1β” value [7, 13] was 18 ± 2 pg/mL. The “Hepatocyte ballooning score 1, number of mice” value ([7]; CVC-low, week 9, n = 6) was 3, the “Hepatocyte ballooning score 2, number of mice” value ([7]; CVC-low, week 9, n = 6) was 3 and the “Lobular inflammation score 1, number of mice” value ([7]; CVC-low, week 9, n = 6) was 3. For the same compound, the “Lobular inflammation score 2, number of mice” value ([7]; CVC-low, week 9, n = 6) was 3, the “Steatosis score 1, number of mice” value ([7]; CVC-low, week 9, n = 6) was 6 and the “Modified positive area (%), per mouse” value ([7]; Cenicriviroc-high, individual mice 301-306) was 0.20%. The “Modified positive area (%), per photo” value ([7]; Cenicriviroc-high, individual mice 301-306, photos 1-5) was 0.41% and 0.09% (2×) and 0.23% (2×) and 0.17% (2×) and 0.28% (2×) and 0.22% (2×) and 0.08% (3×) and 0.05% and 0.32% and 0.07% (3×) and 0.16% and 0.20% (2×) and 0.68% and 0.27% and 0.12% and 0.11% and 0.67% and 0.26% and 0.06% and 0.10%, the “Liver hydroxyproline” value ([7]; week 9) was 0.62±0.09 μg/mg total protein and the “Plasma ALT (U/L)” value ([7]; week 9) was 51±13 U/L and 52±13 U/L. For the same compound, the “Plasma MIP-1β” value ([7]; week 9) was 20 ± 4 pg/mL, the “Liver hydroxyproline” value ([7]; week 9, listed as Cenicriviroc) was 0.62 ± 0.09 μg/mg total protein and the “Plasma ALT (U/L)” value ([7]; week 9, listed as Cenicriviroc) was 52 ± 13 U/L. For the same compound, the “Plasma MIP-1β” value ([7]; week 9, listed as Cenicriviroc) was 20 ± 4 pg/mL and the “inflammation in clinical pathology parameters or tissue incl. liver” value [8] was “No indication of inflammation”.
